# In patent US20100292278A1, “Methods of treating vascular disease and injury” (priority 2009, published 2010):
# Key:
# miR-29c = test: qRT-PCR of miR-29 expression level in H9c2 cells; type: cell-based, rat
# Protocol: (§1) The cardiac muscle cell H9c2 was maintained in complete growth medium, supplemented with 10% FBS, penicillin G (100 IU/ml). Cells were incubated at 37° C. in a humidified atmosphere (5% CO2/95% air). Passages 5-9 were used for all experiments. Exponentially growing H9c2 cells were seeded at 1×10^5 per 100 mm plate and incubated until 60-70% confluent. Cells were treated with: 1) vehicle alone (2% ethanol); 2) 10 nM PIO; 3) 1 μM GW9662; 4) 10 nM PIO+1 μM GW9662. PIO was dissolved in 70% ethanol. 24 hours later, cells were harvested and total RNA enriched with small RNAs was isolated using mirVana miRNA Isolation Kit (Ambion). MiR-29 levels were measured using the mirVana qRT-PCR miRNA Detection Kit (Ambion). Reactions containing mirVana qRT-PCR Primer Sets were specific for rat miR-29. The appropriate cycle threshold (Ct) was determined by using the automatic baseline determination feature. The expression of miR-29 between RNA samples was calculated. Data were normalized by evaluating U6 expression.
# miR-29a = test: qRT-PCR of miR-29 expression level in H9c2 cells; type: cell-based, rat
# Protocol: as §1
# [1] = 10 nM PIO + 1 μM GW9662, 24 hours
# [2] = single agent, 24 hours, 10 nM PIO or 1 μM GW9662, vs vehicle control
smiles,measurement,setting,value
O=C(Nc1ccccc1)c1cc([N+](=O)[O-])ccc1Cl [GW9662],effect of PIO on miR-29c level in H9c2 cells (qRT-PCR),miR-29c; [1],block the effect of PIO
same,miR-29c level in H9c2 cells (qRT-PCR),miR-29c; [2],no effect
same,effect of PIO on miR-29a level in H9c2 cells (qRT-PCR),miR-29a; [1],block the effect of PIO
same,miR-29a level in H9c2 cells (qRT-PCR),miR-29a; [2],no effect
